{"source": "patent EP0381514B1", "about": "“Use of N-methyl-sphingosine as inhibitor of cell growth” (The Biomembrane Institute, priority 1989, dated 1990)", "key": {"C-kinase": {"tested_on": "C-kinase", "assay": "Inhibition of C-kinase activity (liposome method, histone III-S, 32P-ATP)", "assay_type": "biochemical, human", "design": "C-kinase ³²P incorporation: unit: cpm", "settings": "for inhibitory activity of C-kinase: conclusion in words from Tables I, II and Figs. 2, 3; for C-kinase ³²P incorporation %: relative to phosphatidyl-serine, diolein, Ca⁺² control = 100; for Inhibition of C-kinase (concentration in »M yielding 50% inhibition): C-kinase from A431 cells", "description": "A431 cells were grown in a mixture of DME and Ham's F-12 medium (weight ratio 1:1) supplemented with 10% fetal calf serum (FCS). […] Briefly, cells were scraped by rubber policeman, suspended in 50 ml of 20 mM Tris-HCL (pH 7.5), 2 mM EDTA, 0.5 mM EGTA, 0.15 U/ml aprotinine, and 0.25 M sucrose, and homogenized by 50 strokes at 4°C in a Dounce homogenizer (40-ml size, Wheaton). The homogenized cells were ultracentrifuged at 100,000 xg for 60 min. The supernatant was purified on a DE52 column equilibrated with 20 mM Tris-HCL (pH 7.5), 2 mM EDTA, and 0.5 mM EGTA (buffer B), and washed well with this buffer. The C-kinase activity was eluted with buffer B containing 0.1 M NaCl.\nThe lipid mixture was sonicated in 30 »l of 20 mM Tris-HCl (pH 7.5) for 30 min. The liposomes in the tube were supplemented with the reaction mixture, consisting of 25 mM Tris-HCl (pH 7.5), 10 mM MgCl₂, 400 »M EDTA, 50 »M EGTA, 500 »M CaCl₂, 200 »g/ml Histone III-S, and 20 »M gamma-[³²P]-ATP (2 x 10⁶ cpm); final volume was 90 »l.\nThe reaction was initiated by addition of 10 »l of C-kinase fraction (containing 1-2 »g protein) prepared as described above, and the reaction mixture was incubated for 10 min at 30°C. […] The value without phosphatidylserine, 1,2-diolein, or Ca²⁺ were used as a control."}, "[1]": {"tested_on": "human colonic cancer cells HRT-18", "assay": "Inhibition of growth of human colonic cancer cells HRT-18 in vitro (cell count after 3 days)", "assay_type": "cell-based", "settings": "HRT-18, 3 days", "description": "HRT-18 cells were seeded in plates in Dulbecco's modified Eagle's medium supplemented with 10% fetal calf serum (5 x 10⁵ cells per each 3 cm plate). After the cells were cultured overnight, the medium was replaced with the same media containing various concentrations of N,N-dimethyl- or N-monomethyl sphingosine, N-acetylsphingosine, and ceramide as shown in Fig. 4. Cultures were continued for 3 days, and cell numbers were counted. The percent inhibition of cell numbers in the presence of reagents was calculated as percent of control dishes, which contained no sphingosine derivatives."}, "mouse splenocytes [2]": {"tested_on": "mouse splenocytes", "assay": "Inhibition of IL-2-dependent mitogenesis, mouse splenocytes", "assay_type": "cell-based", "description": "The effect of N,N-dimethyl-sphingosine (prepared from naturally occurring sphingolipid as described in Example 3) on IL-2-dependent mitogenesis was tested using human peripheral blood lymphocytes and mouse splenocytes.\nInhibition of IL-2-induced mitogenesis of mouse splenocytes was determined in an analogous manner."}, "[3]": {"tested_on": "human peripheral blood lymphocytes", "assay": "Inhibition of concanavalin-A-induced mitogenesis (3H-thymidine uptake), human lymphocytes", "assay_type": "cell-based", "settings": "2 »g con-A/ml", "description": "Peripheral blood lymphocytes isolated from human blood by known methods were cultured in RPMI containing 2 »g con-A/ml for 18 hours in multiple wells. Subsequently, various concentrations of N,N-dimethylsphingosine, sphingosine, or N-acetylsphingosine as shown in Fig. 6 were added to the culture media and cultured continuously for 5 hours, followed by addition of ³H-thymidine. The thymidine uptake over a 5-hour period was determined. The % inhibition of mitogenesis was calculated based on control value (without addition of any inhibitor)."}, "mouse splenocytes [4]": {"tested_on": "mouse splenocytes", "assay": "Inhibition of concanavalin-A-induced mitogenesis, mouse splenocytes", "assay_type": "cell-based", "description": "The effect of N,N-dimethyl-sphingosine (prepared from naturally occurring sphingolipid as described in Example 3) on conconavalin-A (con-A) -induced mitogenesis was tested using human peripheral blood lymphocytes and mouse splenocytes.\nInhibition of con-A-induced mitogenisis of mouse splenocytes was determined in an analogous manner."}, "[5]": {"tested_on": "human peripheral blood lymphocytes", "assay": "Inhibition of IL-2-dependent mitogenesis (3H-thymidine incorporation), human lymphocytes", "assay_type": "cell-based", "settings": "0.5 U/ml IL-2", "description": "Human peripheral blood lymphocytes isolated from human blood by known methods were cultured in RPMI containing 0.5 U/ml IL-2. […] Mitogenesis was measured by incorporation of ³H-thymidine into DNA over a 5-hour period. Percent inhibition as compared to the control value (without addition of any inhibitor) was determined."}, "HRT18 tumor cells": {"tested_on": "HRT18 tumor cells", "assay": "Inhibition of in vivo growth of HRT18 tumor cells in nude mice", "settings": "44 »g/200 »l in PBS injected at day 7, 11 and 15; tumor weight estimated by size; significant (p>0.005 as printed)", "description": "The effect of N,N-dimethyl-sphingosine (prepared from naturally occurring sphingolipid as described in Example 3) on in vivo growth of HRT18 tumor cells in nude mice was determined as follows.\n1 x 10⁶ HRT-18 human colonic cancer cells were inoculated into nude mice at day 0 by known methods. N,N-dimethylsphingosine emulsified in phosphate buffered saline (PBS) (44 »g/200 »l) was injected at day 7, 11, and 15. Tumor growth weight in mg was estimated by the size of the tumors. Each group consisted of ten animals."}}}
{"compound": "CCCCCCCCCCCCC/C=C/[C@@H](O)[C@@H](N)CO", "note": "[D-erythro-sphingenine, D(+)-erythro-sphingenine, reference compound]", "values": [{"measurement": "inhibitory activity of C-kinase", "setting": "C-kinase", "value": "weak and similar inhibitory activity"}, {"measurement": "C-kinase ³²P incorporation", "setting": "C-kinase; lipid added at 50 »M", "value": "18754 ± 2184"}, {"measurement": "C-kinase ³²P incorporation %", "setting": "C-kinase; lipid added at 50 »M, 50 µM", "value": "47 ± 6", "unit": "%"}]}
{"compound": "CCCCCCCCCCCCC/C=C/[C@H](O)[C@H](N)CO", "note": "[L-erythro-sphingenine, L(-)-erythro-sphingenine, reference compound]", "values": [{"measurement": "inhibitory activity of C-kinase", "setting": "C-kinase", "value": "weak and similar inhibitory activity"}, {"measurement": "C-kinase ³²P incorporation", "setting": "C-kinase; lipid added at 50 »M", "value": "18549 ± 2760"}, {"measurement": "C-kinase ³²P incorporation %", "setting": "C-kinase; lipid added at 50 »M, 50 µM", "value": "47 ± 7", "unit": "%"}]}
{"compound": "CCCCCCCCCCCCC/C=C/[C@@H](O)[C@H](CO)N(C)C", "note": "[N,N-dimethyl-D-erythro-sphingenine]", "values": [{"measurement": "inhibitory activity of C-kinase", "setting": "C-kinase", "value": "strikingly strong inhibitory activity"}, {"measurement": "C-kinase ³²P incorporation", "setting": "C-kinase; lipid added at 2 »M", "value": "34206 ± 1220"}, {"measurement": "C-kinase ³²P incorporation %", "setting": "C-kinase; lipid added at 2 »M, 2 µM", "value": "86 ± 3", "unit": "%"}, {"measurement": "C-kinase ³²P incorporation", "setting": "C-kinase; lipid added at 10 »M", "value": "20563 ± 1173"}, {"measurement": "C-kinase ³²P incorporation %", "setting": "C-kinase; lipid added at 10 »M, 10 µM", "value": "52 ± 3", "unit": "%"}, {"measurement": "C-kinase ³²P incorporation", "setting": "C-kinase; lipid added at 25 »M", "value": "15214 ± 377"}, {"measurement": "C-kinase ³²P incorporation %", "setting": "C-kinase; lipid added at 25 »M, 25 µM", "value": "38 ± 1", "unit": "%"}, {"measurement": "C-kinase ³²P incorporation", "setting": "C-kinase; lipid added at 50 »M", "value": 5254}, {"measurement": "C-kinase ³²P incorporation %", "setting": "C-kinase; lipid added at 50 »M, 50 µM", "value": 13, "unit": "%"}]}
{"compound": "CCCCCCCCCCCCC/C=C/[C@H](O)[C@@H](CO)N(C)C", "note": "[N,N-dimethyl-L-erythro-sphingenine]", "values": [{"measurement": "inhibitory activity of C-kinase", "setting": "C-kinase", "value": "weaker inhibitory activity"}, {"measurement": "C-kinase ³²P incorporation", "setting": "C-kinase; lipid added at 2 »M", "value": "37354 ± 1420"}, {"measurement": "C-kinase ³²P incorporation %", "setting": "C-kinase; lipid added at 2 »M, 2 µM", "value": "95 ± 4", "unit": "%"}, {"measurement": "C-kinase ³²P incorporation", "setting": "C-kinase; lipid added at 10 »M", "value": "25583 ± 1931"}, {"measurement": "C-kinase ³²P incorporation %", "setting": "C-kinase; lipid added at 10 »M, 10 µM", "value": "65 ± 5", "unit": "%"}, {"measurement": "C-kinase ³²P incorporation", "setting": "C-kinase; lipid added at 25 »M", "value": "21743 ± 577"}, {"measurement": "C-kinase ³²P incorporation %", "setting": "C-kinase; lipid added at 25 »M, 25 µM", "value": "55 ± 2", "unit": "%"}, {"measurement": "C-kinase ³²P incorporation", "setting": "C-kinase; lipid added at 50 »M", "value": 11020}, {"measurement": "C-kinase ³²P incorporation %", "setting": "C-kinase; lipid added at 50 »M, 50 µM", "value": 28, "unit": "%"}]}
{"compound": "CCCCCCCCCCCCC/C=C/[C@H](O)[C@H](CO)N(C)C", "note": "[N,N-dimethyl-L-threo-sphingosine]", "values": [{"measurement": "inhibition of cell growth", "setting": "[1]; at 12.5 »M concentration", "value": "significantly inhibited"}]}
{"compound": "CCCCCCCCCCCCC/C=C/[C@@H](O)[C@H](CO)N(C)C", "note": "[N,N-dimethyl-sphingosine]", "values": [{"measurement": "inhibitory effect on IL-2-dependent mitogenesis", "setting": "mouse splenocytes [2]", "value": "strong inhibitory effect"}, {"measurement": "inhibition of con-A-dependent growth stimulation", "setting": "[3]", "value": "greatly inhibited"}, {"measurement": "inhibitory effect on concanavalin-A-induced mitogenesis", "setting": "mouse splenocytes [4]", "value": "strong inhibitory effect"}, {"measurement": "inhibition of IL-2-dependent mitogenesis", "setting": "[5]", "value": "invariably inhibited"}, {"measurement": "inhibition of growth", "setting": "HRT18 tumor cells", "value": "more than 50%"}, {"measurement": "inhibition of cell growth", "setting": "[1]; at 12.5 »M concentration", "value": "significantly inhibited"}]}
{"compound": "CCCCCCCCCCCCC/C=C/[C@@H](O)[C@H](CO)NC(C)=O", "note": "[N-acetylsphingosine, reference compound]", "values": [{"measurement": "inhibition of IL-2-dependent mitogenesis", "setting": "[5]", "value": "less so"}, {"measurement": "Inhibition of C-kinase (concentration in »M yielding 50% inhibition)", "setting": "C-kinase", "value": "no inhibition"}, {"measurement": "inhibition of cell growth", "setting": "[1]; at 150 »M concentration", "value": "minimum inhibition"}]}
{"compound": "CCCCCCCCCCCCC/C=C/[C@@H](O)[C@@H](N)CO", "note": "[sphingosine]", "values": [{"measurement": "inhibition of IL-2-dependent mitogenesis", "setting": "[5]", "value": "less so"}]}
{"compound": "Ceramide [reference compound]", "values": [{"measurement": "Inhibition of C-kinase (concentration in »M yielding 50% inhibition)", "setting": "C-kinase", "value": "no inhibition"}, {"measurement": "inhibition of cell growth", "setting": "[1]; at 150 »M concentration", "value": "minimum inhibition"}]}
{"compound": "Lactosylsphingosine [reference compound]", "values": [{"measurement": "Inhibition of C-kinase (concentration in »M yielding 50% inhibition)", "setting": "C-kinase", "value": "no inhibition"}]}
{"compound": "N-monomethyl-sphingosine", "values": [{"measurement": "inhibition of cell growth", "setting": "[1]; at 12.5 »M concentration", "value": "significantly inhibited"}]}
